Measurements published in US20030109920A1, “Engineered animal tissue” (The Regents of the University of California, priority 2001, published 2003).

Assays:
Assay type in all cases: cell-based, human
PECAM-1 = experiment: IL-8 treatment of artificial tissue, phosphorylation of PECAM-1 by immunoblot; conditions: artificial tissue treated with IL-8 at 50, 100, 300, 600, 1000 ng/ml for 30 minutes; immunoblot (FIG. 3)
Method: (§1) Cell cultures: Three dimensional artificial tissues were created as described above in Example 1 using primary normal human microvascular endothelial cells from adult lung (hMVEC; Clonetics), and primary adult normal human dermal fibroblasts (NHDF; Clonetics). The cultures were set up in either 24-well plates or Transwell units (Becton Dickinson) with polyethylene tetraphthalate filters containing 4 μm pores. Cultures were maintained at 37° C. and of 5% CO2 for at least 2 weeks. Medium was changed 24 hours after the cultures were started and then fed every 48 hours.
(§2) Immunoblotting: SDS-PAGE was performed using 10% separating Doucet gels (Doucet, J., and J. Trifaro. A discontinous and highly porous sodium dodecyl sulfatepolyacrylamide slab gel system of high resolution. Anal. Biochem. (1988) 168:265-271.). Protein transfer to nitrocellulose membranes was performed using a wet-transfer apparatus (BioRad) at 100V for 45 min at room temperature. The membranes were blocked for 1 hour in 5% BSA in TTBS (0.05% Tween in Tris buffered saline) and incubated overnight at 4° C. in primary antibody diluted in 1% BSA in TTBS. The membranes were washed 3 times for 20 min each with TTBS, incubated in anti-mouse or anti-rabbit HRP (1:10,000) in 1% BSA for 1 hr, and washed 3 times for 20 minutes each with TTBS. The antibody bound to the membrane was visualized using ECL chemiluminescent kit (Amersham). […]

MMP-9 = experiment: Gelatin zymogram assay of MMP-9 in IL-8 treated artificial tissue; conditions: Cell/ECM extracts and culture medium (supernatants); samples collected 24 hours after IL-8 treatment (FIG. 4)
Method: as §1
Zymography: Zymography was performed using 10% denaturing polyacrylamide gels as previously described (Paech and Christiansen. (1994) In Cell biology: a laboratory handbook. (J. Celis, Ed.) V.3 pp.264-271 San Diego: Academic Press). Briefly, gels to test for gelatinolytic activity contained 1% gelatin (Sigma) and were cast 12 hours before the sample separation. Protein samples were separated at 4° C. with 10 mA constant current for each gel. The proteins were renatured using two washes of 15 minutes each in 2.5% Triton-X100 twice at RT. […]

VE-cadherin = experiment: IL-8 treatment of artificial tissue, phosphorylation of VE-Cadherin by immunoblot; conditions: artificial tissue treated with IL-8 at 50, 100, 300, 600, 1000 ng/ml for 30 minutes; immunoblot (FIG. 3)
Method: as §1, §2

IL-8: human chemokine IL-8, used as test compound on the artificial tissue
phosphorylation of PECAM in microvessels (PECAM-1): stimulates the phosphorylation
MMP-9 activation (MMP-9): increases MMP-9 production and activation in a dose-dependent manner
MMP-9 production (MMP-9): increases MMP-9 production and activation in a dose-dependent manner
phosphorylation of VE-cadherin in microvessels (VE-cadherin): stimulates the phosphorylation
